# Results: the supplement of paper PMC10307832
# Tests used:
# Test in all cases: relative viability (nuclei count vs DMSO), 5 days (fraction); higher = more cells survive
# [1] = compound: CC1CC(=O)N(C2=CN=C(N=C2N1C3CCCC3)NC4=C(C=C(C=C4)C(=O)NC5CCN(CC5)C)OC)C [NPK76-II-72-1] + CCNC(=O)c1noc(-c2cc(C(C)C)c(O)cc2O)c1-c1ccc(CN2CCOCC2)cc1 [Luminespib] (partner 0.01 µM)
# How it was run: (§1)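 Relative viability is defined as nuclei in treated wells over nuclei in vehicle wells. Duplicate plates were run and medians reported. Lung cancer cell lines in 1536-well plates were dosed by pin tool one day after seeding, with one drug or with a fixed anchor-drug dose plus five library-drug doses (not always all listed) in √10 steps, and nuclei were counted after 5 days.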
# [2] = compound: CC1CC(=O)N(C2=CN=C(N=C2N1C3CCCC3)NC4=C(C=C(C=C4)C(=O)NC5CCN(CC5)C)OC)C [NPK76-II-72-1] + Nc1ncn([C@H]2C[C@H](O)[C@@H](CO)O2)c(=O)n1 [Decitabine] (partner 2 µM)
# How it was run: as §1
# [3] = compound: CC1CC(=O)N(C2=CN=C(N=C2N1C3CCCC3)NC4=C(C=C(C=C4)C(=O)NC5CCN(CC5)C)OC)C [NPK76-II-72-1] + N=C(N)NC(=N)NCCc1ccccc1 [Phenformin] (partner 250 µM)
# How it was run: as §1
# BI-2536 + Linsitinib = compound: CC[C@@H]1C(=O)N(C)c2cnc(Nc3ccc(C(=O)NC4CCN(C)CC4)cc3OC)nc2N1C1CCCC1 [BI-2536] + C[C@]1(O)C[C@@H](c2nc(-c3ccc4ccc(-c5ccccc5)nc4c3)c3c(N)nccn32)C1 [Linsitinib] (partner 1 µM)
# How it was run: as §1
Cell Line,relative viability ([1]; first compound 0.01 µM),relative viability ([1]; first compound 0.03162 µM),relative viability ([1]; first compound 0.1 µM),relative viability ([1]; first compound 0.3162 µM),relative viability ([1]; first compound 1 µM),relative viability ([2]; first compound 0.01 µM),relative viability ([2]; first compound 0.03162 µM),relative viability ([2]; first compound 0.1 µM),relative viability ([2]; first compound 0.3162 µM),relative viability ([2]; first compound 1 µM),relative viability ([3]; first compound 0.01 µM),relative viability ([3]; first compound 0.03162 µM),relative viability ([3]; first compound 0.1 µM),relative viability ([3]; first compound 0.3162 µM),relative viability ([3]; first compound 1 µM),relative viability (BI-2536 + Linsitinib; first compound 0.01 µM),relative viability (BI-2536 + Linsitinib; first compound 0.03162 µM),relative viability (BI-2536 + Linsitinib; first compound 0.1 µM),relative viability (BI-2536 + Linsitinib; first compound 0.3162 µM),relative viability (BI-2536 + Linsitinib; first compound 1 µM)
NCI-H1755,0.579,0.563,0.264,0.371,0.503,0.738,0.712,0.75,0.735,0.694,0.605,0.634,0.575,0.647,0.654,1.03,0.992,0.971,0.455,0.272
NCI-H661,0.964,0.943,0.892,0.906,0.933,0.582,0.553,0.589,0.458,0.56,0.278,0.255,0.282,0.279,0.245,0.458,0.567,0.709,0.232,0.2
HARA,0.854,0.831,0.668,0.439,0.895,0.643,0.57,0.616,,0.451,0.419,0.408,0.486,0.434,0.509,0.984,1.2,0.969,0.0681,0.0677
NCI-H596,0.871,1.18,0.975,1.03,1.12,1.02,1.19,1.01,1,1.01,0.649,0.777,0.789,0.782,0.774,1.09,1.1,1.11,0.363,0.39
NCI-H23,0.237,0.209,0.228,0.228,0.201,0.31,0.315,0.264,0.405,0.306,0.752,0.788,0.684,0.718,0.85,0.536,0.542,0.644,0.191,0.138
LCLC-97TM1,0.673,0.768,0.532,0.748,0.748,0.226,0.233,0.195,0.259,0.211,0.401,0.464,0.388,0.398,0.416,0.157,0.239,0.168,0.143,0.113
EPLC-272H,0.161,,0.313,0.264,0.58,0.407,0.387,0.371,0.379,0.37,0.304,,0.259,0.229,0.343,1.12,1.15,,0.143,0.0967
NCI-H1915,0.762,0.798,0.75,0.7,0.845,0.256,0.257,0.27,0.261,0.278,0.363,0.39,0.363,0.34,0.357,1.12,1.05,1.03,0.625,0.143
NCI-H2405,0.625,0.688,0.773,0.771,0.93,0.74,0.789,0.719,0.629,0.862,0.379,0.386,0.4,0.35,0.419,0.903,0.855,0.745,0.225,0.468
NCI-H322M,0.818,0.826,0.943,0.783,1.01,0.675,0.711,0.714,0.743,0.77,0.706,0.935,0.778,0.817,0.829,0.921,0.835,1.04,0.668,0.339
NCI-H1395,0.774,0.76,0.678,0.709,0.863,0.758,0.619,0.628,0.693,0.753,0.466,0.422,0.457,0.429,0.405,0.928,0.785,0.633,0.544,0.474
NCI-H358,0.21,0.431,0.521,,0.839,0.193,0.215,0.222,,0.214,0.324,0.382,0.32,,0.372,0.723,0.676,0.402,0.161,0.137
NCI-H838,0.288,0.344,0.299,0.273,0.274,0.495,0.458,0.455,0.466,0.476,0.532,0.585,0.657,0.629,0.556,1.05,0.961,0.96,0.136,0.126
